Source: patent US12538922B2, “Composition and methods for parasite control” (priority 2019, dated 2026)
Values joined by “and” are separate entries in the source; they are usually repeats but may differ in a detail not shown here. Identical values can stand only once. Like-named read-outs stand apart in the source and are kept apart here.

Assays:
[1] = tested on: adult Aedes aegypti mosquitoes; experiment: Mosquito repellency assay (landings and time on warm treated surface); assay type: in vivo; settings: for Mean probing time [%, compared to control]: 100% = same time as on vehicle-treated surface; for Repellency, % reduction in landings vs vehicle control: repellency as percentage reduction of control, 100% = no landings
Method: The compound of the invention is mixed with ethanol to make a composition that can be applied to a surface and allowed to dry. After the surface is treated with the compounds of the invention and dried, it is heated to human body temperature, and the number of landings and the total time spent by the mosquitoes on the warm surface by adult Aedes aegypti mosquitoes is recorded automatically by machine vision to measure repellency of each compound.
Repellency (based on the number of individual landings on the warm surface) is expressed as a percentage reduction of the control, where the average number of mosquitoes landing on a warm surface treated only with the vehicle solvent is counted. 100% means no mosquitoes landed on the warm surface.
For mosquitoes that still landed on the warm surface, the time spent on the warm surface is also recorded and expressed as a percentage of the control, corresponding to the average time that mosquitoes spent on the same warm surface when treated only with the vehicle solvent. 100% mean that the mosquitoes spent the same time on the treated warm surface as on a warm surface treated only with the vehicle solvent.
Each compound/dose is tested in triplicate using a surface of 18.9 cm2 and 100 microliters of solution without the compound (the placebo) or with the compound dilution spread on the surface, and allowed to dry before the test. The average and standard error on triplicates is calculated. The control (using only vehicle solvent) is run with ethanol. The same population of mosquitoes is exposed first to the warm surface treated with the vehicle solvent, then to the surface treated with the compound. The concentration of the solution comprising the test compound was adjusted to ensure the treatment dosage of the compound is according to the final concentration per surface units area in the table.

[2] = tested on: R. sanguineus tick larvae; settings: for Repellence Median (Q1-Q3) [%] / Knockdown Median (Q1-Q3) [%]: pure compound; for Repellence Median (Q1-Q3) [%]: median of replicates; for Knockdown Median (Q1-Q3) [%]: motility reduction over 9 min; for Knockdown Minimum effective concentration / Repellence Minimum effective concentration: smallest concentration with median activity above 50% significance limit
Method: FIG. 1 Schematic representation of the tick repellent test. 30-60 tick larvae are deposited in the non-treated area of a circular arena (8.96 cm^2) whereby one quadrant of the surface (2.25 cm^2) is treated. After 1 minute, the distribution of ticks in the treated and untreated areas is measured for a duration of 2 minutes. The repellent/deterrent effect is expressed in %: 100% means that ticks completely avoided the treated surface. Toxicity is measured in the same setup over a duration of 8 minutes and the mortality is expressed in % motility reduction between the beginning and the end of the 8 minutes. Dosages are expressed as a quantity (mg or molarity) per surface unit (m^2), as the compound or extract is deposited at the bottom of the well. Pure compounds: dose given in micromoles/m^2; Extracts: dose given in micrograms/m^2. Tests were run in triplicates.
The assay is used to evaluate the repellent/deterrent potential of a test compound or extract. The test includes a preliminary assessment of knockdown efficacy as a secondary endpoint. Knockdown can be defined as a state of intoxication and paralysis that usually precedes death (Wickham et al. (1974) Pesticide Science 5(5): 657-664). The test relies on the questing behavior of ticks that explore their habitat to find a suitable host hunting site and their propensity to avoid areas treated with repellent or irritating substances. Tick knockdown is expressed as a reduction in total motility over a defined period of time, and not by collecting and counting the number of dead and live ticks at the end of the exposure period.
Plant extracts or synthetic pure alkaloids diluted in methanol (extracts) or ethanol (alkaloids) were deposited on the bottom of wells in a six-well plate. Only one quadrant ([…]) of the bottom surface of each well was treated. The solvent was left to evaporate. The final concentration of the plant extracts was, therefore, expressed in mg/m^2, or in micromoles per square meter (μmol/m^2) for the synthetic alkaloids. Final concentrations applied for plant extracts were 893 (R. sanguineus adults only), 446, 141, 44.6, 14.1, and 4.46 mg/m^2, and 300, 100, 30, 10, and 3 μmol/m^2 for pure alkaloids. Approximately 50 R. sanguineus tick larvae, and exactly 5 R. sanguineus adults, or 5 I. ricinus nymphs were added to the untreated area of each well. Positive (DEET, commercial tick repellent) and negative (methanol or ethanol) controls were evaluated in parallel. Each concentration tested was run in three or more test replicates. After a 1-min incubation on a heating plate, the frequency of tick movement in the treated quadrant and in each of the untreated quadrants was recorded by machine vision. Tick movement on the untreated surface was computed as the median of movement on the three untreated quadrants. To estimate deterrence recordings were performed over a period of 2 min for R. sanguineus larvae, and for 3 minutes for R. sanguineus adults and I. ricinus nymphs, after the 1-min pre-exposure period. To assess knockdown effect, recording was extended to 9 min (starting at the 1-min pre-exposure period and lasting an additional 8 minutes).
Deterrence activity was calculated as follows: Percent deterrence=1−(movements on treated area/movements on untreated area)×100.
A difference of 50% between total movements recorded in the treated area versus movements recorded in the untreated area was considered significant.
The tick knockdown effect was calculated similarly: Percent knockdown=1−(movements at the end of the imaging period/movements at the beginning of the imaging period)×100.
A difference of 50% between total movements recorded during the 1 min pre-exposure and total movements measured at 9 min of recording was considered significant.

[3] = Table 5, N = 3 subset of Table 4
[4] = Table 5, N = 3 subset of Table 4, dose 300
[5] = Table 5, N = 3 subset of Table 4, dose 30

Structure (SMILES) | % repellency [2, 4] [%] | Repellence Median (Q1-Q3) [%] ([2]; concentration 3 μmol/m^2) | Knockdown Median (Q1-Q3) [%] ([2]; concentration 3 μmol/m^2) | Repellence Median (Q1-Q3) [%] ([2]; concentration 10 μmol/m^2) | Knockdown Median (Q1-Q3) [%] ([2]; concentration 10 μmol/m^2) | Repellence Median (Q1-Q3) [%] ([2]; concentration 30 μmol/m^2) | Knockdown Median (Q1-Q3) [%] ([2]; concentration 30 μmol/m^2) | Repellence Median (Q1-Q3) [%] ([2]; concentration 100 μmol/m^2) | Knockdown Median (Q1-Q3) [%] ([2]; concentration 100 μmol/m^2) | Repellence Median (Q1-Q3) [%] ([2]; concentration 300 μmol/m^2) | Knockdown Median (Q1-Q3) [%] ([2]; concentration 300 μmol/m^2) | Knockdown Minimum effective concentration [2] [μmol/m^2] | other results
C1=CC[C@H](c2cccnc2)NC1 (single isomer, unassigned) [R enantiomer base, R-(+) anatabine] |  |  |  |  |  |  |  |  |  |  |  |  | Mean probing time [%, compared to control] ([1]; dose 75 μmol/m^2): 29.0%; Repellency, % reduction in landings vs vehicle control ([1]; dose 75 μmol/m^2): 68.9%; Mean probing time [%, compared to control] ([1]; dose 380 μmol/m^2): 2.7%; Repellency, % reduction in landings vs vehicle control ([1]; dose 380 μmol/m^2): 77.9%
C1=CC[C@@H](c2cccnc2)NC1 (single isomer, unassigned) [S enantiomer base, S-(−) anatabine] |  |  |  |  |  |  |  |  |  |  |  |  | Mean probing time [%, compared to control] ([1]; dose 75 μmol/m^2): 20.6%; Repellency, % reduction in landings vs vehicle control ([1]; dose 75 μmol/m^2): 86.5%; Mean probing time [%, compared to control] ([1]; dose 380 μmol/m^2): 1.6%; Repellency, % reduction in landings vs vehicle control ([1]; dose 380 μmol/m^2): 90.0%
c1cncc([C@@H]2CCCCN2)c1 [(S)-anabasine] | 9 | 6.6 | 0 | 42.4% | 6.9 | 46.9% | 10.4 | 58 | 6.0% | 40.5% | 9.5% | >300 | MEC (μmol/m^2) [2, 3]: >300 μmol/m^2; % mortality [2, 4]: 14%
CN1CCC[C@H]1c1cccnc1 [(S)-nicotine] |  |  | 3.4 |  | 1.3 |  | 26.4 |  | 37% and 37.1% |  | 95% and 94.5% | 300 | 
c1cncc([C@@H]2CCCN2)c1 [(S)-nornicotine] | 70 | 12.3 | 0.7 | 35.3% | 0.4 | 27.9% | 9.9 | 42.2 | 9% | 81% and 81.1% | 18.7% | >300 | MEC (μmol/m^2) [2, 3]: 300 μmol/m^2; % mortality [2, 5]: 11%; % repellency [2, 5]: 5%; % mortality [2, 4]: 49%; Repellence Minimum effective concentration [2]: 300 μmol/m^2
CCN(CC)C(=O)c1cccc(C)c1 [DEET, N,N-Diethyl-m-toluamide] | 100 | 31.1 | 0.7 | 57% and 57.3% | 10.0 | 64% and 63.9% | 2.4 | 75.7 | 5.2% | 100% | 11.1% | >300 | % repellency ([2]; Table 5, N = 3 subset of Table 4, dose 3): 27%; % repellency [2, 5]: 26%; % mortality ([2]; in vivo): 11%; % repellency ([2]; positive control, dose 8.5 (mg/m^2)): 81.6%; Repellence Minimum effective concentration [2]: 10 μmol/m^2; MEC (Repellency) (mg/m^2) ([2]; tobacco extracts and DEET positive control): 8.5 mg/m^2
C1=CCC(c2cccnc2)NC1 (centres unmarked) [anatabine] |  |  |  |  |  |  |  |  |  |  |  |  | mosquito repellency, base form compared with HCl salt form ([1]; in vivo): significantly better mosquito repellent than in the HCl salt form; time spent by mosquitoes on treated surface, base form compared with HCl salt form ([1]; in vivo): much shorter time
